The values below come from US9738933B2, “RNF41 as a biomarker predicting response to lenalidomide in non-del(5q) MDS” (H. LEE MOFFITT CANCER CENTER AND RESEARCH INSTITUTE, INC., priority 2012, dated 2017).

Assay [1] concerns EpoR. The experiment in a line: EpoR stability in UT-7 cells treated with cycloheximide ± LEN, EpoR immunoblot. It is filed as cell-based. The note with it: cycloheximide + 1 μM LEN, CHX alone 56 h. On the procedure:
UT-7 cells (a cell line established from the bone marrow of a patient with acute megakaryoblastic leukemia) were treated with cycloheximide (CHX)±1 μM LEN for 0, 32, 40, 48, 56, 64, and 72 hours. The samples were then separated by SDS-PAGE, and immunoblotted with EpoR antibodies.

For assay [2], the system named is IL3-R. The experiment in a line: IL3-R (Type 1 receptor) expression in UT-7 cells, immunoblot. Conditions: LEN 0.1, 1, 10 μM, 1 hour. It is filed as cell-based. On the procedure:
(§1) To examine if the effects of LEN on receptor turnover are restricted to Type 1 cytokine receptors, the effects of LEN on cellular expression of IL3-R (Type 1) and c-Kit (Type 2) were examined. UT-7 cells were treated with increasing concentrations of LEN (0 μM (control), 0.1 μM, 1 μM, and 10 μM) for 1 hour. Samples were separated by SDS-PAGE and immunoblotted with IL3-R (Type 1) and c-Kit (Type 2) antibodies.

Assay [3] has as its system c-Kit. The assay is described as follows: c-Kit (Type 2 receptor) expression in UT-7 cells, immunoblot. Type of assay: cell-based. Conditions: LEN 0.1, 1, 10 μM, 1 hour. On the procedure: as §1
Assay [4] concerns the target T1, EpoR/RNF41 (Homo sapiens, UniProt Q9H4P4).
T1 construct: endogenous in cells; host or cells: UT-7
T1 sequence (Q9H4P4 1-317): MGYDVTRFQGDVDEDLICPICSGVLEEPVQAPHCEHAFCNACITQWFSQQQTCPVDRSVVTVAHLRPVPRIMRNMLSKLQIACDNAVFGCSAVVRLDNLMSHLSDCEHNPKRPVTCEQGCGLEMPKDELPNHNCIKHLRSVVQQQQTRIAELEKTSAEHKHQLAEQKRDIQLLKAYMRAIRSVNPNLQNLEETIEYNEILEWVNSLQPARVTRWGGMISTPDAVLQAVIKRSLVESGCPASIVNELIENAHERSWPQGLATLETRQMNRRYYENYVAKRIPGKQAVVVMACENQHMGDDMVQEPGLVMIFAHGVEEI
T1 sequence (P19235 25-508 partner): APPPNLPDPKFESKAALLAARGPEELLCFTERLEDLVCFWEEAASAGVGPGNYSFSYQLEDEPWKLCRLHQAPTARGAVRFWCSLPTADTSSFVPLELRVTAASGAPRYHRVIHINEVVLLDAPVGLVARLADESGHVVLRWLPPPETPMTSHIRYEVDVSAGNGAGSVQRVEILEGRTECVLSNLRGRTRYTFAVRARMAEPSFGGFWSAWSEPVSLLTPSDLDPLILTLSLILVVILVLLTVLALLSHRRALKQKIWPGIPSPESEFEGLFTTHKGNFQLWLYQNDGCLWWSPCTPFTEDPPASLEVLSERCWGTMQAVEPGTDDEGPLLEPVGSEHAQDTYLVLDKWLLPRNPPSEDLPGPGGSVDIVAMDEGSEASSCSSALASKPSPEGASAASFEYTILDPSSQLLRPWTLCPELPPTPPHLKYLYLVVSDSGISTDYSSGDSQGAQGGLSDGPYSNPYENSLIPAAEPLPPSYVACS
The assay is described as follows: EpoR/RNF41 association in UT-7 cells, EpoR immunoprecipitation and RNF41 immunoblot. Type of assay: cell-based. The note with it: LEN 0.1, 1, 10 μM, 1 hour. On the procedure: To determine if LEN alters EpoR/RNF41 interaction, protein association after LEN treatment was examined. UT-7 cells were treated with increasing concentrations of LEN (0 μM (control), 0.1 μM, 1 μM, and 10 μM) for 1 hour. The cells were then lysed, and the cell lysates were immunoprecipitated for EpoR, and immunoblotted for EpoR and RNF41.

The target in assay [5] is T2, RNF41 (Homo sapiens, UniProt Q9H4P4).
T2 construct: assessed through immunoprecipitation of RNF41 and immunoblotting for ubiquitin; endogenous in cells; host or cells: UT-7
T2 sequence (Q9H4P4 1-317): T1 sequence (Q9H4P4 1-317)
The experiment in a line: RNF41 auto-ubiquitination in bortezomib pre-treated UT-7 cells, RNF41 immunoprecipitation and ubiquitin immunoblot. It is filed as cell-based. Conditions: bortezomib 20 nM 24 hours, then LEN 0.1, 1, 10 μM, 1 hour. On the procedure:
(§2) To investigate the effects of LEN on RNF41 function, protein specific ubiquitination after proteasomal inhibition with bortezomib followed by LEN treatment was investigated. UT-7 cells were pre-treated with bortezomib (20 nM), a proteasome inhibitor, for 24 hours. The cells were subsequently treated with increasing concentrations of LEN (0 μM (control), 0.1 μM, 1 μM, and 10 μM) for 1 hour. The effect of LEN treatment on RNF41 was assessed through immunoprecipitation of RNF41 and immunoblotting for ubiquitin. To verify the observed effects, total protein levels in whole cell lysates were also assessed for RNF41 expression. In order to determine EpoR ubiquitination changes upon LEN treatment, immunoprecipitation of EpoR was carried out followed by immunoblotting for ubiquitin.

Assay [6] deals with EpoR. The assay is described as follows: EpoR ubiquitination in bortezomib pre-treated UT-7 cells, EpoR immunoprecipitation and ubiquitin immunoblot. Type of assay: cell-based. Conditions: bortezomib 20 nM 24 hours, then LEN 0.1, 1, 10 μM, 1 hour. On the procedure: as §2
Assay [7] concerns EpoR. The assay is described as follows: LEN-induced EpoR expression in HEK293T cells transfected with EpoR and/or RNF41, immunoblot densitometry. It is filed as cell-based. Conditions: EpoR+pMet7-RNF41 vs EpoR HEK293T cells, LEN 0.1, 1, 10 μM, 1 hour. On the procedure:
FIG. 1 is a bar graph plotting the ratio of EpoR/Actin in EpoR and EpoR+pMet7-RNF41 HEK293T cells treated with increasing concentrations of LEN (0 μM (control), 0.1 μM, 1 μM, and 10 μM).
To confirm that RNF41 is the principal target of LEN responsible for EpoR stabilization, HEK293T cells were transfected with EpoR and/or RNF41 expression vectors using the calcium phosphate method. Transfected cells were treated with increasing concentrations of LEN (0 μM (control), 0.1 μM, 1 μM, and 10 μM) for 1 hour, separated by SDS-PAGE, and immunoblotted with EpoR antibodies. Steady state EpoR expression was lower in EpoR/RNF41 cells compared with cells transfected with EpoR alone.

Assay [8] relates to non-del(5q) MDS. Conditions: MDS patients with non-del(5q); cited from earlier work.
In assay [9] the test system is JAK2-associated EpoR. The note with it: Basiorka, et al. Blood 2011; cited from earlier work.

Each structure is given as a SMILES string. Where only a bound is given, the exact number is not on record here.

In the case of `Nc1cccc2c1CN(C1CCC(=O)NC1=O)C2=O` (stereo not drawn) [LEN, Lenalidomide], the “cellular EpoR T1/2” value in [1] is on record as above 72 h. In addition, the “cellular expression of IL3-R” value in assay [2] is given as “Upregulation of IL3-R occurred in a concentration-dependent manner”. The “cellular expression of c-Kit” value in assay [3] is reported as “remained unchanged”. The “binding of RNF41 to EpoR” value in assay [4] was “Increased binding of RNF41 to EpoR occurs in a concentration-dependent manner”. Also, in assay [5], the RNF41 auto-ubiquitination entry was “inhibited RNF41 auto-ubiquitination in a concentration-dependent fashion”. Besides, the EpoR ubiquitination result in assay [6] is reported as “corresponding decrease in EpoR ubiquitination”. For the same compound, the “LEN induced EpoR expression (EpoR/Actin) with RNF41 overexpression” value in [7] is listed as “blocked LEN induced EpoR expression by approximately two-fold”. The “patients likely to be responsive to treatment” value in assay [8] is on record as “approximately 26%”. The “cellular expression of JAK2-associated EpoR” value in assay [9] was “induces cellular expression of JAK2-associated EpoR in a concentration-dependent manner”.
